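Grown in 96-well plates, cells were treated for 48 hours with each compound at five concentrations. Insufficient inhibition: endpoint recorded as highest concentration tested. GI50: concentration for 50% inhibition of growth. TGI marks complete inhibition of growth.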
Key:
Test in all cases: inhibition of tumour cell growth, NCI panel, 48 h
[1] = tested on: HCC-2998 colon
[2] = tested on: PC-3 prostate
[3] = tested on: CAKI-1 renal
[4] = tested on: MCF7 breast
[5] = tested on: SR leukemia
[6] = tested on: OVCAR-8 ovarian
[7] = tested on: HT29 colon
[8] = tested on: MDA-MB-231 breast
[9] = tested on: NCI-H23 lung
[10] = tested on: NCI/ADR-RES ovarian
[11] = tested on: HOP-62 NSCLC
[12] = tested on: SF-268 CNS
[13] = tested on: MOLT-4 leukemia
[14] = tested on: SNB-75 CNS
[15] = tested on: RXF 393 renal
[16] = tested on: SF-539 CNS
[17] = tested on: HS 578T breast
[18] = tested on: LOX IMVI melanoma
[19] = tested on: NCI-H226 lung
[20] = tested on: SW-620 colon
[21] = tested on: OVCAR-3 ovarian
[22] = tested on: OVCAR-5 ovarian
[23] = tested on: MALME-3M melanoma
[24] = tested on: SNB-19 CNS
[25] = tested on: SK-MEL-2 melanoma
[26] = tested on: A498 renal
[27] = tested on: RPMI-8226 leukemia
[28] = tested on: T-47D breast
[29] = tested on: TK-10 renal
[30] = tested on: COLO 205 colon
[31] = tested on: MDA-MB-435
[32] = tested on: SF-295 CNS
[33] = tested on: SK-MEL-5 melanoma
[34] = tested on: 786-0 renal
[35] = tested on: HOP-92 NSCLC
[36] = tested on: SK-OV-3 ovarian
[37] = tested on: K-562 leukemia
[38] = tested on: OVCAR-4 ovarian
[39] = tested on: SN12C renal
[40] = tested on: NCI-H460 lung
[41] = tested on: HL-60(TB) leukemia
[42] = tested on: UO-31 renal
[43] = tested on: KM12 colon
[44] = tested on: U251 CNS
[45] = tested on: UACC-62 melanoma
[46] = tested on: HCT-116 colon
[47] = tested on: DU-145 prostate
[48] = tested on: BT-549 breast
[49] = tested on: ACHN renal
[50] = tested on: HCT-15 colon
[51] = tested on: M14 melanoma
[52] = tested on: SK-MEL-28 melanoma
[53] = tested on: IGROV1 ovarian

## CCCC(c1nnnn1C1CCCCC1)N1CCN(C(=O)c2ccco2)CC1 (stereo unspecified)
[1]
  GI50: > 100 µM
  TGI: > 100 µM
[2]
  GI50: > 100 µM
  TGI: > 100 µM
[3]
  GI50: > 100 µM
  TGI: > 100 µM
[4]
  GI50: > 100 µM
  TGI: > 100 µM
[5]
  GI50: > 100 µM
  TGI: > 100 µM
[6]
  GI50: > 100 µM
  TGI: > 100 µM
[7]
  GI50: > 100 µM
  TGI: > 100 µM
[8]
  GI50: > 100 µM
  TGI: > 100 µM
[9]
  GI50: > 100 µM
  TGI: > 100 µM
[10]
  GI50: > 100 µM
  TGI: > 100 µM
[11]
  GI50: > 100 µM
  TGI: > 100 µM
[12]
  GI50: > 100 µM
  TGI: > 100 µM
[13]
  GI50: > 100 µM
  TGI: > 100 µM
[14]
  GI50: > 100 µM
  TGI: > 100 µM
[15]
  GI50: > 100 µM
  TGI: > 100 µM
[16]
  GI50: > 100 µM
  TGI: > 100 µM
[17]
  GI50: > 100 µM
  TGI: > 100 µM
[18]
  GI50: > 100 µM
  TGI: > 100 µM
[19]
  GI50: > 100 µM
  TGI: > 100 µM
[20]
  GI50: > 100 µM
  TGI: > 100 µM
[21]
  GI50: > 100 µM
  TGI: > 100 µM
[22]
  GI50: > 100 µM
  TGI: > 100 µM
[23]
  GI50: > 100 µM
  TGI: > 100 µM
[24]
  GI50: > 100 µM
  TGI: > 100 µM
[25]
  GI50: > 100 µM
  TGI: > 100 µM
[26]
  GI50: > 100 µM
  TGI: > 100 µM
[27]
  GI50: > 100 µM
  TGI: > 100 µM
[28]
  GI50: > 100 µM
  TGI: > 100 µM
[29]
  GI50: > 100 µM
  TGI: > 100 µM
[30]
  GI50: > 100 µM
  TGI: > 100 µM
[31]
  GI50: > 100 µM
  TGI: > 100 µM
[32]
  GI50: > 100 µM
  TGI: > 100 µM
[33]
  GI50: > 100 µM
  TGI: > 100 µM
[34]
  GI50: > 100 µM
  TGI: > 100 µM
[35]
  GI50: > 100 µM
  TGI: > 100 µM
[36]
  GI50: > 100 µM
  TGI: > 100 µM
[37]
  GI50: > 100 µM
  TGI: > 100 µM
[38]
  GI50: > 100 µM
  TGI: > 100 µM
[39]
  GI50: > 100 µM
  TGI: > 100 µM
[40]
  GI50: > 100 µM
  TGI: > 100 µM
[41]
  GI50: > 100 µM
  TGI: > 100 µM
[42]
  GI50: > 100 µM
  TGI: > 100 µM
[43]
  GI50: > 100 µM
  TGI: > 100 µM
[44]
  GI50: > 100 µM
  TGI: > 100 µM
[45]
  GI50: > 100 µM
  TGI: > 100 µM
[46]
  GI50: > 100 µM
  TGI: > 100 µM
[47]
  GI50: > 100 µM
  TGI: > 100 µM
[48]
  GI50: > 100 µM
  TGI: > 100 µM
[49]
  GI50: > 100 µM
  TGI: > 100 µM
[50]
  GI50: > 100 µM
  TGI: > 100 µM
[51]
  GI50: > 100 µM
  TGI: > 100 µM
[52]
  GI50: > 100 µM
  TGI: > 100 µM
[53]
  GI50: > 100 µM
  TGI: > 100 µM
